Measured values as given in patent publication US20220024877A1 (Kansas State University Research Foundation, priority 2018, published 2022).
Converted amounts (≈) assume the structure as drawn. Like-named read-outs stand apart in the source and are kept apart here.

Key:
MRSA = test: In vitro activity against S. aureus (MRSA), MIC with or without Cu supplementation; conditions: for MIC: Staphylococcus aureus, MRSA; for MIC* against MRSA: kinetic data (determined from bacteria growth experiments), resulting in IC50 values similar to MIC values
Experimental: S. aureus was inoculated in Mueller-Hinton medium from frozen stocks and grown for 2-4 h (until reaching an OD600˜1) at 37° C. while shaking. Once the OD was reached, bacteria were harvested and diluted in Phenolred-free RPMI1640 medium to an OD of 0.01 (=inoculum). Test compounds where diluted from frozen DMSO-stocks were diluted in Phenolred-free RPMI1640 medium with or without Cu supplementation (100 μM) and serially diluted in 96-well plates in the same medium to achieve a final concentration of between 0.08 and 10 μM after addition of an equal volume of inoculum. Medium-only controls and growth controls in the absence of test compounds were also included. The plates were placed in sealed bags and incubated at 37° C. After 15-20 h incubation time, an OD600 reading was taken and analyzed. […] If kinetic data were required, resazurin was added to each well. Using a plate reader with incubation chamber, resazurin conversion was monitored by fluorescence reading every 20 min for up to 24 h. After normalizing the data to respective controls, the MIC was determined using the same definition as above.

[1] = Copper(I) binding constant of NNSN compounds (1H-NMR titration with CuBr in D4-methanol); conditions: for Binding constant: Cu-NNSN 1:1 stoichiometry; for Copper (I) binding constant: Table I
Experimental: They were recorded in D4-methanol by means of adding aliquots of a 5 mmol CuBr stock solution in D4-methanol to the 1 mmol NNSN-compound, resulting in 0, 0.5, 1.0, 2.0 and 3.0 mmol CuBr concentration in D4-methanol.

[2] = Therapeutic index (approx.)
[3] = log P (octanol/water partition coefficient); type: physicochemical
S. aureus strain 1471 = test: Drop assay against S. aureus strain 1471 with or without copper
Experimental: For the drop assay, bacteria were grown in wells with or without copper, using a 1:2 drug titration starting at 10 μM.

[4] = tested on: Avirulent Mtb strain mc26206 (H37Rv ΔpanCD ΔleuCD, double auxotroph); test: microbe, parasite or virus in culture; type: cell-based; conditions: Mycobacterium tuberculosis
[5] = tested on: multi-drug resistant Gram-positive bacteria; conditions: current antibiotics, background section; cited from earlier work
[6] = read-out: MIC* against MRSA (μM), kinetic data (determined from bacteria growth experiments), resulting in IC50 values similar to MIC values
[7] = Staphylococcus aureus, MRSA, read-out: MIC against MRSA (clinical isolate 1471)
[8] = Staphylococcus aureus, 1471, read-out: MIC: +50 μM Cu

For S=C(Nc1ccc(Cl)cc1)n1cccn1 [listing 1 of 2 here], the MIC (MRSA; organism not named there) was 5 µM (≈ 1.19 µg/mL), the “MIC* against MRSA” value (MRSA) was 5.0 µM (≈ 1.19 µg/mL) and the “Binding constant” value [1] was 2100 M⁻¹. For the same compound, the “Copper (I) binding constant” value [1] was 2100 M⁻¹.
For S=C(Nc1ccc(Cl)cc1)n1cccn1 [listing 2 of 2 here], the “MIC* against MRSA” value (MRSA) was 1.25 µM (≈ 0.297 µg/mL) and the “Copper (I) binding constant” value [1] was 1434 M⁻¹.
With CC(C)(C)n1ccc(NC(=O)Nc2ccc(Cl)cc2)n1 [SB10, 1-(1-(tert-butyl)-1H-pyrazol-3-yl)-3-(4-chlorophenyl)urea] the “Binding constant” value [1] was 1786.13 M⁻¹.
With Cn1ccc(NC(=O)Nc2ccc(Cl)cc2)n1 [SB11, 1-(4-chlorophenyl)-3-(1-methyl-1H-pyrazol-3-yl)urea] the “Binding constant” value [1] was less than 100 M⁻¹.
In the case of S=C(Nc1ccc(Cl)cc1)n1ccnn1 [SB18], the “Binding constant” value [1] is reported as less than 1000 M⁻¹.
For FC(F)(F)c1ccn(C(=S)Nc2ccc(Cl)cc2)n1 [SB20], the “Binding constant” value [1] was less than 1000 M⁻¹.
With O=[N+]([O-])c1ccc(NC(=S)n2cccn2)cc1 [SB21, N-(4-nitrophenyl)-1H-pyrazole-1-carbothioamide] the MIC (MRSA; organism not named there) was 10 µM (≈ 2.48 µg/mL) and the “Binding constant” value [1] was 26063 M⁻¹.
With COc1ccc(NC(=S)n2cccn2)cc1 [SB22, N-(4-methoxyphenyl)-1H-pyrazole-1-carbothioamide] the “Therapeutic index (approx.)” value [2] was greater than 2, the MIC (MRSA; [6]) was 10 µM (≈ 2.33 µg/mL) and the MIC (MRSA; organism not named there) was 10 µM (≈ 2.33 µg/mL). The “Binding constant” value [1] was 3975 M⁻¹ and the “Copper (I) binding constant” value [1] was 3975 M⁻¹.
For Fc1ccc(NC(=S)n2cccn2)cc1 [SB23, N-(4-fluorophenyl)-1H-pyrazole-1-carbothioamide], the MIC (MRSA; organism not named there) was greater than 10 µM and the “Binding constant” value [1] was 22057 M⁻¹.
In the case of Cc1ccc(NC(=S)n2cccn2)cc1 [SB25, N-(p-tolyl)-1H-pyrazole-1-carbothioamide], the MIC (MRSA; [6]) is reported as 5 µM (≈ 1.09 µg/mL) and the “Copper (I) binding constant” value [1] is reported as 1635 M⁻¹.
With S=C(Nc1ccc(Br)cc1)n1cccn1 [SB26, N-(4-bromophenyl)-1H-pyrazole-1-carbothioamide] the MIC (MRSA; [6]) was 10 µM (≈ 2.82 µg/mL) and the “Copper (I) binding constant” value [1] was 1550 M⁻¹.
For O=[N+]([O-])c1ccc(NC(=S)Nc2cc[nH]n2)cc1 [SB28, 1-(4-nitrophenyl)-3-(1H-pyrazol-3-yl)thiourea], the MIC (MRSA; read-out: MIC (MRSA), MRSA) was 5 µM (≈ 1.32 µg/mL) and the “Binding constant” value [1] was 1200 M⁻¹.
For Cn1ccc(NC(=S)Nc2ccc(Cl)cc2)n1 [SB29], the “Binding constant” value [1] was 1150 M⁻¹.
In the case of O=[N+]([O-])c1cnn(C(=S)Nc2ccc(Cl)cc2)c1 [SB30, N-(4-chlorophenyl)-4-nitro-1H-pyrazole-1-carbothioamide], the “Binding constant” value [1] is reported as 1100 M⁻¹.
For COc1ccc(NC(=S)n2ccc(N)n2)cc1 [SB31, 3-amino-N-(4-methoxyphenyl)-1H-pyrazole-1-carbothioamide], the MIC (MRSA; [6]) was 10 µM (≈ 2.48 µg/mL) and the “Copper (I) binding constant” value [1] was 5452 M⁻¹.
With Cc1ccc(NC(=S)n2ccc(N)n2)cc1 [SB32, 3-amino-N-(p-tolyl)-1H-pyrazole-1-carbothioamide] the MIC (MRSA; [6]) was 2.5 µM (≈ 0.581 µg/mL) and the “Copper (I) binding constant” value [1] was 6140 M⁻¹.
In the case of Nc1ccn(C(=S)Nc2ccc(Br)cc2)n1 [SB33, 3-amino-N-(4-bromophenyl)-1H-pyrazole-1-carbothioamide], the MIC (MRSA; [6]) is reported as 1.25 µM (≈ 0.371 µg/mL) and the “Copper (I) binding constant” value [1] is reported as 5830 M⁻¹.
In the case of Nc1ccn(C(=S)Nc2ccc(F)cc2)n1 [SB37, 3-amino-N-(4-fluorophenyl)-1H-pyrazole-1-carbothioamide], the MIC (MRSA; [6]) is reported as 10 µM (≈ 2.36 µg/mL) and the “Copper (I) binding constant” value [1] is reported as 5540 M⁻¹.
For O=[N+]([O-])c1cnn(C(=S)Nc2ccc(Cl)cc2)c1 [SB38], the “Binding constant” value [1] was less than 100 M⁻¹.
In the case of Nc1cnn(C(=S)Nc2ccc(Cl)cc2)c1 [SB39], the “Binding constant” value [1] is reported as 2200 M⁻¹.
With CN(C)c1ccn(C(=S)Nc2ccc(Cl)cc2)n1 [SB40, N-(4-chlorophenyl)-3-(dimethylamino)-1H-pyrazole-1-carbothioamide] the MIC (MRSA; [6]) was 0.6 µM (≈ 0.168 µg/mL) and the “Copper (I) binding constant” value [1] was 58500 M⁻¹.
S=C(Nc1ccc(Cl)cc1)n1ccc(OCc2ccccc2)n1 [SB44, 3-(benzyloxy)-N-(4-chlorophenyl)-1H-pyrazole-1-carbothioamide] showed an MIC (MRSA; [6]) of 0.15 µM (≈ 0.0516 µg/mL), a logP [3] of 4.74 and an MIC (S. aureus strain 1471; [7]) of 0.15 µM (≈ 0.0516 µg/mL).
CN(C(=S)Nc1ccc(Cl)cc1)c1ccn(C(=S)Nc2ccc(Cl)cc2)n1 [SB45, N-(4-chlorophenyl)-3-(3-(4-chlorophenyl)-1-methylthioureido)-1H-pyrazole-1-carbothioamide] showed an IC50 ([4]; read-out: IC50 +Cu) of 2 µM, an IC50 ([4]; read-out: IC50 −Cu) greater than 50 µM and an MIC90 ([4]; read-out: MIC90 +Cu) of 3.5 µM (≈ 1.53 µg/mL). The MIC90 ([4]; read-out: MIC90 −Cu) was greater than 100 µM and the MIC (MRSA; [6]) was less than 0.016 µM.
In the case of S=C(Nc1ccccc1Cl)n1cccn1 [SB46, N-(2-chlorophenyl)-1H-pyrazole-1-carbothioamide], the IC50 ([4]; read-out: IC50 +Cu) is reported as 10 µM, the IC50 ([4]; read-out: IC50 −Cu) is reported as greater than 100 µM and the MIC90 ([4]; read-out: MIC90 +Cu) is reported as greater than 100 µM. The MIC90 ([4]; read-out: MIC90 −Cu) was greater than 100 µM and the MIC (MRSA; [6]) was 0.3 µM (≈ 0.0713 µg/mL).
Cc1nn(C(=S)Nc2ccc(Cl)cc2)cc1[N+](=O)[O-] [SB47, N-(4-chlorophenyl)-3-methyl-4-nitro-1H-pyrazole-1-carbothioamide] gave an MIC (MRSA; [6]) of 2.5 µM (≈ 0.742 µg/mL).
Work on Nc1ccn(C(=S)Nc2ccccc2Cl)n1 [SB49, 3-amino-N-(2-chlorophenyl)-1H-pyrazole-1-carbothioamide] yielded an MIC (MRSA; [6]) of 0.6 µM (≈ 0.152 µg/mL).
For Nc1ccn(C(=S)Nc2cccc(Cl)c2)n1 [SB50, 3-amino-N-(3-chlorophenyl)-1H-pyrazole-1-carbothioamide], the MIC (MRSA; [6]) was 0.15 µM (≈ 0.0379 µg/mL).
Work on S=C(Nc1cccc(Cl)c1)n1cccn1 [SB52, N-(3-chlorophenyl)-1H-pyrazole-1-carbothioamide] yielded an MIC (MRSA; [6]) of 2.5 µM (≈ 0.594 µg/mL).
In the case of S=C(Nc1ccn(C(=S)Nc2ccccc2Cl)n1)Nc1ccccc1Cl [SB53, N-(2-chlorophenyl)-3-(3-(2-chlorophenyl)thioureido)-1H-pyrazole-1-carbothioamide], the MIC (MRSA; [6]) is reported as 0.3 µM (≈ 0.127 µg/mL).
With CN(C(=S)Nc1cccc(Cl)c1)c1ccn(C(=S)Nc2cccc(Cl)c2)n1 [SB54, N-(3-chlorophenyl)-3-(3-(3-chlorophenyl)-1-methylthioureido)-1H-pyrazole-1-carbothioamide] the logP [3] was 5.9, the MIC (S. aureus strain 1471; [8]) was 0.15 µM (≈ 0.0655 µg/mL) and the MIC (S. aureus strain 1471; [7]) was 0.15 µM (≈ 0.0655 µg/mL).
Work on CN(C(=S)Nc1ccccc1Cl)c1ccn(C(=S)Nc2ccccc2Cl)n1 [SB55, N-(2-chlorophenyl)-3-(3-(2-chlorophenyl)-1-methylthioureido)-1H-pyrazole-1-carbothioamide] yielded an MIC (S. aureus strain 1471; [8]) of 10 µM (≈ 4.36 µg/mL).
For O=[N+]([O-])c1cnn(C(=S)Nc2ccccc2Cl)c1 [SB56, N-(2-chlorophenyl)-4-nitro-1H-pyrazole-1-carbothioamide], the MIC (S. aureus strain 1471; [8]) was 5 µM (≈ 1.41 µg/mL).
With S=C(Nc1cccc(Cl)c1)Nc1ccn(C(=S)Nc2cccc(Cl)c2)n1 [SB57, N-(3-chlorophenyl)-3-(3-(3-chlorophenyl)thioureido)-1H-pyrazole-1-carbothioamide] the MIC (S. aureus strain 1471; [8]) was 0.6 µM (≈ 0.253 µg/mL).
Compound O=[N+]([O-])c1cnn(C(=S)Nc2cccc(Cl)c2)c1 [SB59, N-(3-chlorophenyl)-4-nitro-1H-pyrazole-1-carbothioamide] has an MIC (S. aureus strain 1471; [8]) of 2.5 µM (≈ 0.707 µg/mL).
In the case of Cc1ccn(C(=S)Nc2ccccc2Cl)n1 [SB60, N-(2-chlorophenyl)-3-methyl-1H-pyrazole-1-carbothioamide], the MIC (S. aureus strain 1471; [8]) is reported as 1.25 µM (≈ 0.315 µg/mL).
Nc1cnn(C(=S)NCc2ccccc2Cl)c1 [SB62, 4-amino-N-(2-chlorobenzyl)-1H-pyrazole-1-carbothioamide] showed an MIC (S. aureus strain 1471; [8]) of 5 µM (≈ 1.33 µg/mL).
Compound O=[N+]([O-])c1ccc(COc2ccn(C(=S)Nc3ccc(Cl)cc3)n2)cc1 [SB63, N-(4-chlorophenyl)-3-((4-nitrobenzyl)oxy)-1H-pyrazole-1-carbothioamide] has an MIC (MRSA; organism not named there) greater than 10 µM.
S=C(Nc1ccccc1Cl)n1ccc(OCc2ccccc2)n1 [SB64, 3-(benzyloxy)-N-(2-chlorophenyl)-1H-pyrazole-1-carbothioamide] showed an IC50 ([4]; read-out: IC50 +Cu) of 0.8 µM, an IC50 ([4]; read-out: IC50 −Cu) greater than 100 µM and an MIC90 ([4]; read-out: MIC90 +Cu) of 1.6 µM (≈ 0.55 µg/mL). For the same compound, the MIC90 ([4]; read-out: MIC90 −Cu) was greater than 100 µM.
For S=C(Nc1ccc(Cl)cc1)n1cc(Br)cn1 [SB68, 4-bromo-N-(4-chlorophenyl)-1H-pyrazole-1-carbothioamide], the MIC (MRSA; organism not named there) was 10 µM (≈ 3.17 µg/mL).
Work on Cc1cccc(C)c1NC(=S)n1cccn1 [SB71, N-(2,6-dimethylphenyl)-1H-pyrazole-1-carbothioamide] yielded an MIC (MRSA; organism not named there) of 0.6 µM (≈ 0.139 µg/mL).
Work on Cc1ccn(C(=S)Nc2c(C)cccc2C)n1 [SB72, N-(2,6-dimethylphenyl)-3-methyl-1H-pyrazole-1-carbothioamide] yielded an MIC (MRSA; organism not named there) of 0.6 µM (≈ 0.147 µg/mL).
With COC(=O)c1ccn(C(=S)Nc2ccccc2Cl)n1 [SB73] the MIC (MRSA; [6]) was 5 µM (≈ 1.48 µg/mL) and the “Copper (I) binding constant” value [1] was 985.27 M⁻¹.
With COC(=O)c1ccn(C(=S)Nc2cccc(Cl)c2)n1 [SB74, Methyl 1-((3-chlorophenyl)carbamothioyl)-1H-pyrazole-3-carboxylate] the MIC (MRSA; [6]) was 2.5 µM (≈ 0.739 µg/mL) and the “Copper (I) binding constant” value [1] was 1127.86 M⁻¹.
For CCOC(=O)c1ccn(C(=S)Nc2ccc(Cl)cc2)n1 [SB77], the MIC (MRSA; [6]) was 0.6 µM (≈ 0.186 µg/mL) and the “Copper (I) binding constant” value [1] was 1580.08 M⁻¹.
Nc1ccn(C(=S)Nc2ccc(N=C=S)cc2)n1 [SB79, 3-amino-N-(4-isothiocyanatophenyl)-1H-pyrazole-1-carbothioamide] showed an IC50 ([4]; read-out: IC50 +Cu) greater than 100 µM, an IC50 ([4]; read-out: IC50 −Cu) greater than 100 µM and an MIC90 ([4]; read-out: MIC90 +Cu) greater than 100 µM. For the same compound, the MIC90 ([4]; read-out: MIC90 −Cu) was greater than 100 µM.
For CN[C@H](CC(C)C)C(=O)N[C@H]1C(=O)N[C@@H](CC(N)=O)C(=O)N[C@H]2C(=O)N[C@H]3C(=O)N[C@H](C(=O)N[C@H](C(=O)O)c4cc(O)cc(O)c4-c4cc3ccc4O)[C@H](O)c3ccc(c(Cl)c3)Oc3cc2cc(c3O[C@@H]2O[C@H](CO)[C@@H](O)[C@H](O)[C@H]2O[C@H]2C[C@](C)(N)[C@H](O)[C@H](C)O2)Oc2ccc(cc2Cl)[C@H]1O [Vancomycin], the “minimum inhibitory concentrations (MICs)” value [5] is given as 2.2 µM (≈ 3.19 µg/mL).
In the case of Daptinomycin, the “minimum inhibitory concentrations (MICs)” value [5] is given as 0.6 µM.
In the case of Teicoplanin, the “minimum inhibitory concentrations (MICs)” value [5] is listed as 0.8 to 1.0 µM.
